Source: patent US11331369B2, “Endoparasitic depsipeptides” (Zoetis Services LLC, priority 2017, dated 2022)

Test system: microfilariae of Dirofilaria immitis
Assay: Dirofilaria immitis, Microfilaria (DiMF) In vitro Assay
Format: cell-based
Settings: 72 h, read-out: DiMF Minimum Effective Dose (MED), approximately 72 hours incubation, microfilariae assessed for survival or paralysis

Row | Compound | minimal effective concentration [µM]
1 | CC(C)C[C@H]1C(=O)O[C@H](Cc2ccc(Cn3cc(S(=O)(=O)N4CCC4)cn3)cc2)C(=O)N(C)[C@@H](CC(C)C)C(=O)O[C@H](C)C(=O)N(C)[C@@H](CC(C)C)C(=O)O[C@H](Cc2ccccc2)C(=O)N(C)[C@@H](CC(C)C)C(=O)O[C@H](C)C(=O)N1C [Example 2-27, (3S,6R,9S,12R,15S,18R,21S,24R)-6-(4-((4-(azetidin-1-ylsulfonyl)-1H-pyrazol-1-yl)methyl)benzyl)-18-benzyl-3,9,15,21-tetraisobutyl-4,10,12,16,22,24-hexamethyl-1,7,13,19-tetraoxa-4,10,16,22-tetraazacyclotetracosan-2,5,8,11,14,17,20,23-octaone] | 0.01 to 0.1
2 | CC(C)C[C@H]1C(=O)O[C@H](Cc2ccc(Cn3cc([N+](=O)[O-])cn3)cc2)C(=O)N(C)[C@@H](CC(C)C)C(=O)O[C@H](C)C(=O)N(C)[C@@H](CC(C)C)C(=O)O[C@H](Cc2ccccc2)C(=O)N(C)[C@@H](CC(C)C)C(=O)O[C@H](C)C(=O)N1C [Example 2-29, (3S,6R,9S,12R,15S,18R,21S,24R)-6-benzyl-3,9,15,21-tetraisobutyl-4,10,12,16,22,24-hexamethyl-18-(4-((4-nitro-1H-pyrazol-1-yl)methyl)benzyl)-1,7,13,19-tetraoxa-4,10,16,22-tetraazacyclotetracosan-2,5,8,11,14,17,20,23-octaone] | 0.001 to 0.01
3 | CC(=O)Nc1cnn(Cc2ccc(C[C@H]3OC(=O)[C@H](CC(C)C)N(C)C(=O)[C@@H](C)OC(=O)[C@H](CC(C)C)N(C)C(=O)[C@@H](Cc4ccccc4)OC(=O)[C@H](CC(C)C)N(C)C(=O)[C@@H](C)OC(=O)[C@H](CC(C)C)N(C)C3=O)cc2)c1 [Example 2-31, N-(1-(4-(((2R,5S,8R,11S,14R,17S,20R,23S)-14-benzyl-5,11,17,23-tetraisobutyl-4,8,10,16,20,22-hexamethyl-3,6,9,12,15,18,21,24-octaoxo-1,7,13,19-tetraoxa-4,10,16,22-tetraazacyclotetracosan-2-yl)methyl)benzyl)-1H-pyrazol-4-yl)acetamide] | 0.01 to 0.1
4 | CC(C)C[C@H]1C(=O)O[C@H](Cc2ccc(Cn3nc(C4CC4)cc3C3CC3)cc2)C(=O)N(C)[C@@H](CC(C)C)C(=O)O[C@H](C)C(=O)N(C)[C@@H](CC(C)C)C(=O)O[C@H](Cc2ccccc2)C(=O)N(C)[C@@H](CC(C)C)C(=O)O[C@H](C)C(=O)N1C [Example 2-32, (3S,6R,9S,12R,15S,18R,21S,24R)-6-benzyl-18-(4-((3,5-dicyclopropyl-1H-pyrazol-1-yl)methyl)benzyl)-3,9,15,21-tetraisobutyl-4,10,12,16,22,24-hexamethyl-1,7,13,19-tetraoxa-4,10,16,22-tetraazacyclotetracosan-2,5,8,11,14,17,20,23-octaone] | 0.01 to 0.1
5 | CC(C)C[C@H]1C(=O)O[C@H](Cc2ccc(Cn3cc(CCO)cn3)cc2)C(=O)N(C)[C@@H](CC(C)C)C(=O)O[C@H](C)C(=O)N(C)[C@@H](CC(C)C)C(=O)O[C@H](Cc2ccccc2)C(=O)N(C)[C@@H](CC(C)C)C(=O)O[C@H](C)C(=O)N1C [Example 2-35, (3S,6R,9S,12R,15S,18R,21S,24R)-6-benzyl-18-(4-((4-(2-hydroxyethyl)-1H-pyrazol-1-yl)methyl)benzyl)-3,9,15,21-tetraisobutyl-4,10,12,16,22,24-hexamethyl-1,7,13,19-tetraoxa-4,10,16,22-tetraazacyclotetracosan-2,5,8,11,14,17,20,23-octaone] | 0.01 to 0.1
6 | CC(C)C[C@H]1C(=O)O[C@H](Cc2ccc(Cn3cc(NS(C)(=O)=O)cn3)cc2)C(=O)N(C)[C@@H](CC(C)C)C(=O)O[C@H](C)C(=O)N(C)[C@@H](CC(C)C)C(=O)O[C@H](Cc2ccccc2)C(=O)N(C)[C@@H](CC(C)C)C(=O)O[C@H](C)C(=O)N1C [Example 2-36, N-(1-(4-(((2R,5S,8R,11S,14R,17S,20R,23S)-14-benzyl-5,11,17,23-tetraisobutyl-4,8,10,16,20,22-hexamethyl-3,6,9,12,15,18,21,24-octaoxo-1,7,13,19-tetraoxa-4,10,16,22-tetraazacyclotetracosan-2-yl)methyl)benzyl)-1H-pyrazol-4-yl)methanesulfonamide] | 0.01 to 0.1
7 | CC(C)C[C@H]1C(=O)O[C@H](Cc2ccc(Cn3cc(C4CCCC4)cn3)cc2)C(=O)N(C)[C@@H](CC(C)C)C(=O)O[C@H](C)C(=O)N(C)[C@@H](CC(C)C)C(=O)O[C@H](Cc2ccccc2)C(=O)N(C)[C@@H](CC(C)C)C(=O)O[C@H](C)C(=O)N1C [Example 2-38, (3S,6R,9S,12R,15S,18R,21S,24R)-6-benzyl-18-(4-((4-cyclopentyl-1H-pyrazol-1-yl)methyl)benzyl)-3,9,15,21-tetraisobutyl-4,10,12,16,22,24-hexamethyl-1,7,13,19-tetraoxa-4,10,16,22-tetraazacyclotetracosan-2,5,8,11,14,17,20,23-octaone] | 0.01 to 0.1
8 | CCOc1cnn(Cc2ccc(C[C@H]3OC(=O)[C@H](CC(C)C)N(C)C(=O)[C@@H](C)OC(=O)[C@H](CC(C)C)N(C)C(=O)[C@@H](Cc4ccc(CO)cc4)OC(=O)[C@H](CC(C)C)N(C)C(=O)[C@@H](C)OC(=O)[C@H](CC(C)C)N(C)C3=O)cc2)c1 [Example 2-39, (3S,6R,9S,12R,15S,18R,21S,24R)-6-(4-((4-ethoxy-1H-pyrazol-1-yl)methyl)benzyl)-18-(4-(hydroxymethyl)benzyl)-3,9,15,21-tetraisobutyl-4,10,12,16,22,24-hexamethyl-1,7,13,19-tetraoxa-4,10,16,22-tetraazacyclotetracosan-2,5,8,11,14,17,20,23-octaone] | 0.001 to 0.01
9 | Cc1nn(Cc2ccc(C[C@H]3OC(=O)[C@H](CC(C)C)N(C)C(=O)[C@@H](C)OC(=O)[C@H](CC(C)C)N(C)C(=O)[C@@H](Cc4ccccc4)OC(=O)[C@H](CC(C)C)N(C)C(=O)[C@@H](C)OC(=O)[C@H](CC(C)C)N(C)C3=O)cc2)c(C)c1S(=O)(=O)N1CCCC1 [Example 2-40, (3S,6R,9S,12R,15S,18R,21S,24R)-6-benzyl-18-(4-((3,5-dimethyl-4-(pyrrolidin-1-ylsulfonyl)-1H-pyrazol-1-yl)methyl)benzyl)-3,9,15,21-tetraisobutyl-4,10,12,16,22,24-hexamethyl-1,7,13,19-tetraoxa-4,10,16,22-tetraazacyclotetracosan-2,5,8,11,14,17,20,23-octaone] | 0.01 to 0.1
10 | CC(C)C[C@H]1C(=O)O[C@H](Cc2ccc(Cn3nc(CO)cc3CO)cc2)C(=O)N(C)[C@@H](CC(C)C)C(=O)O[C@H](C)C(=O)N(C)[C@@H](CC(C)C)C(=O)O[C@H](Cc2ccccc2)C(=O)N(C)[C@@H](CC(C)C)C(=O)O[C@H](C)C(=O)N1C [Example 2-42, (3S,6R,9S,12R,15S,18R,21S,24R)-6-benzyl-18-(4-((3,5-bis(hydroxymethyl)-1H-pyrazol-1-yl)methyl)benzyl)-3,9,15,21-tetraisobutyl-4,10,12,16,22,24-hexamethyl-1,7,13,19-tetraoxa-4,10,16,22-tetraazacyclotetracosan-2,5,8,11,14,17,20,23-octaone] | 0.01 to 0.1
